Source: ChEMBL document CHEMBL5154820 (Eur J Med Chem, 2022)

Experiments:
[1] = system: HeLa; test: Induction of apoptosis in human HeLa cells assessed as viable cells at 0.1 uM measured after 24 hrs by Annexin V-FITC/7-AAD staining based flow cytometric analysis (reference value: 70.1%); assay type: functional; conditions: read-out: Activity
[2] = target: Tubulin (Sus scrofa) (UniProt P02554+P02550); test: Inhibition of pig brain tubulin polymerization at 6 uM by spectrophotometer analysis relative to control; parameters: scale not given: the % may be the effect or the level left; conditions: Sus scrofa domesticus
[3] = Toxicity against BABL/c mouse assessed as morphological changes in lung at 30 mg/kg, ip administered daily for 21 days followed by addition of 3 mg/kg DDP for every 2 days by H and E staining method; assay type: organism-based; conditions: in vivo, 504 h, time 21 day
[4] = Toxicity against BABL/c mouse assessed as morphological changes in spleen at 30 to 60 mg/kg, ip administered daily for 21 days by H and E staining method; assay type: organism-based; conditions: in vivo, 504 h, dose 30-60 mg/kg, time 21 day
[5] = system: HeLa; test: Induction of cell cycle arrest in human HeLa cells assessed as 4N cells at 0.4 uM measured after 24 hrs by propidium iodide staining based flow cytometric analysis analysis ( Rvb = 20.3%); assay type: functional
[6] = target: Tubulin beta (Homo sapiens) (UniProt P68371+Q9H4B7+Q13509+P04350+Q3ZCM7+P07437+Q13885+Q9BVA1+Q9BUF5+A6NNZ2); test: Binding affinity to beta-tubulin colchicine binding site in human HeLa cells assessed as decrease of adduct formation by measuring gray value measured at 5 uM incubated for 2 hrs followed by addition of EBI measured after 1.5 hrs by EBI competition based Western blotting analysis; assay type: cell-based; conditions: time 3.5 hrs
[7] = Acute toxicity against ICR mouse assessed as chronic progressive nephropathy in kidney at 1000 mg/kg, ip measured after 14 days by H and E staining method; assay type: organism-based; conditions: in vivo, 336 h, time 14 day
[8] = system: HeLa; test: Induction of apoptosis in human HeLa cells assessed as necrotic cells at 0.4 uM measured after 24 hrs by Annexin V-FITC/7-AAD staining based flow cytometric analysis (reference value: 0.56%); assay type: functional
[9] = Toxicity against BABL/c mouse assessed as morphological changes in lung at 30 to 60 mg/kg, ip administered daily for 21 days by H and E staining method; assay type: organism-based; conditions: in vivo, 504 h, dose 30-60 mg/kg, time 21 day
[10] = system: HeLa; test: Induction of cell cycle arrest in human HeLa cells assessed as 2N cells at 0.1 uM measured after 24 hrs by propidium iodide staining based flow cytometric analysis analysis ( Rvb = 47.4%); assay type: functional
[11] = target: Tubulin (Homo sapiens) (UniProt P68371+Q9H4B7+P0DPH7+P68366+Q13509+Q71U36+P04350+Q3ZCM7+P07437+P68363+Q9BQE3+Q6PEY2+Q13885+Q9BVA1+Q9BUF5); test: Induction of microtubule disruption in human HeLa cells assessed as loss of formation of cell membrane rounding at 0.1 to 0.2 uM measured after 24 hrs by DAPI staining based laser scanning confocal microscopic analysis; conditions: dose 0.1-0.2 µM, DDE = dose-dependent effect
[12] = Acute toxicity in ICR female mouse assessed as body weight gain at 100 to 1000 mg/kg, ip measured daily for 14 days; assay type: organism-based; conditions: in vivo, 336 h, dose 100-1000 mg/kg, time 14 day
[13] = Resistant factor, ratio of IC50 for antiproliferative activity against human SiHa/DDP cells to IC50 for human SiHa cells; assay type: functional
[14] = target: Voltage-gated inwardly rectifying potassium channel KCNH2 (Homo sapiens, UniProt Q12809); test: Inhibition of human ERG expressed in CHO cells with holding potential of -80 mV by whole cell patch clamp assay; assay type: toxicity, cell-based
[15] = system: HeLa; test: Antimigratory activity against human HeLa cells at 0.1 uM measured after 24 hrs by scratch wound healing based fluorescence inverted microscopic analysis; assay type: functional
[16] = system: HeLa; test: Induction of cell cycle arrest in human HeLa cells assessed as >4N cells at 0.1 uM measured after 24 hrs by propidium iodide staining based flow cytometric analysis analysis ( Rvb = 8.84%); assay type: functional
[17] = MRT in C57 nude mouse at 30 mg/kg, ip measured at 0.083 to 24 hrs by LC/MS/MS analysis; assay type: ADME, organism-based; conditions: in vivo, time 0.083-24 hrs
[18] = system: HeLa; test: Induction of cell cycle arrest in human HeLa cells assessed as < 2N cells at 0.1 uM measured after 24 hrs by propidium iodide staining based flow cytometric analysis analysis ( Rvb = 7.07%); assay type: functional
[19] = system: HeLa; test: Induction of cell cycle arrest in human HeLa cells assessed as S-phase at 3 nM measured after 24 hrs by propidium iodide staining based flow cytometric analysis analysis ( Rvb = 23.4%); assay type: functional
[20] = system: HeLa; test: Antimigratory activity against human HeLa cells at 3 nM measured after 24 hrs by scratch wound healing based fluorescence inverted microscopic analysis; assay type: functional
[21] = system: HUVEC; test: Vascular disruptive activity against HUVEC-formed vascular tube assessed as damage of vascular tube on matrigel substratum at 0.2 uM measured after 2 hrs; assay type: functional, Homo sapiens
[22] = system: HeLa; test: Induction of cell cycle arrest in human HeLa cells assessed as 4N cells at 3 nM measured after 24 hrs by propidium iodide staining based flow cytometric analysis analysis ( Rvb = 17.1%); assay type: functional
[23] = system: HeLa; test: Induction of cell cycle arrest in human HeLa cells assessed as S-phase at 1.5 nM measured after 24 hrs by propidium iodide staining based flow cytometric analysis analysis ( Rvb = 23.4%); assay type: functional
[24] = system: HeLa; test: Induction of apoptosis in human HeLa cells assessed as viable cells at 1.5 nM measured after 24 hrs by Annexin V-FITC/7-AAD staining based flow cytometric analysis (reference value: 75.5%); assay type: functional; conditions: read-out: Activity
[25] = system: HeLa; test: Induction of cell cycle arrest in human HeLa cells assessed as < 2N cells at 6 nM measured after 24 hrs by propidium iodide staining based flow cytometric analysis analysis ( Rvb = 9.32%); assay type: functional
[26] = system: HeLa; test: Induction of cell cycle arrest in human HeLa cells assessed as >4N cells at 3 nM measured after 24 hrs by propidium iodide staining based flow cytometric analysis analysis relative to control; assay type: functional
[27] = system: HeLa; test: Induction of cell cycle arrest in human HeLa cells assessed as < 2N cells at 3 nM measured after 24 hrs by propidium iodide staining based flow cytometric analysis analysis ( Rvb = 9.32%); assay type: functional
[28] = system: HeLa; test: Induction of apoptosis in human HeLa cells assessed as late apoptotic cells at 6 nM measured after 24 hrs by Annexin V-FITC/7-AAD staining based flow cytometric analysis (reference value: 5.22%); assay type: functional
[29] = system: HeLa; test: Induction of apoptosis in human HeLa cells assessed as late apoptotic cells at 3 nM measured after 24 hrs by Annexin V-FITC/7-AAD staining based flow cytometric analysis (reference value: 5.22%); assay type: functional
[30] = system: HeLa; test: Induction of cell cycle arrest in human HeLa cells assessed as < 2N cells at 1.5 nM measured after 24 hrs by propidium iodide staining based flow cytometric analysis analysis ( Rvb = 9.32%); assay type: functional
[31] = system: HeLa; test: Induction of cell cycle arrest in human HeLa cells assessed as 4N cells at 6 nM measured after 24 hrs by propidium iodide staining based flow cytometric analysis analysis ( Rvb = 17.1%); assay type: functional

Tubulin (Sus scrofa), sequence (P02550 whole entry, looked up): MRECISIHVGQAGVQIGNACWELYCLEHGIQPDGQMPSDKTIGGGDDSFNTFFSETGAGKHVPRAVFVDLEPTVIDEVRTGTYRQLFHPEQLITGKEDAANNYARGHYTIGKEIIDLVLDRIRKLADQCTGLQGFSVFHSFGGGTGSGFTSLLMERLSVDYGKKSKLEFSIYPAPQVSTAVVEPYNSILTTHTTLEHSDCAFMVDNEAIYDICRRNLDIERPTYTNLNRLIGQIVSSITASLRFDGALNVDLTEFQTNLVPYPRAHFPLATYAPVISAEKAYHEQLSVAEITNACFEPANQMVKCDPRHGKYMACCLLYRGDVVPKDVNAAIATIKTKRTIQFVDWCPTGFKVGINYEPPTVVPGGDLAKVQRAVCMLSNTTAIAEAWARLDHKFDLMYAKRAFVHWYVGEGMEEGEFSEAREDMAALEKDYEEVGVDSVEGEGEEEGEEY
Tubulin (Sus scrofa), sequence (P02554 whole entry, looked up): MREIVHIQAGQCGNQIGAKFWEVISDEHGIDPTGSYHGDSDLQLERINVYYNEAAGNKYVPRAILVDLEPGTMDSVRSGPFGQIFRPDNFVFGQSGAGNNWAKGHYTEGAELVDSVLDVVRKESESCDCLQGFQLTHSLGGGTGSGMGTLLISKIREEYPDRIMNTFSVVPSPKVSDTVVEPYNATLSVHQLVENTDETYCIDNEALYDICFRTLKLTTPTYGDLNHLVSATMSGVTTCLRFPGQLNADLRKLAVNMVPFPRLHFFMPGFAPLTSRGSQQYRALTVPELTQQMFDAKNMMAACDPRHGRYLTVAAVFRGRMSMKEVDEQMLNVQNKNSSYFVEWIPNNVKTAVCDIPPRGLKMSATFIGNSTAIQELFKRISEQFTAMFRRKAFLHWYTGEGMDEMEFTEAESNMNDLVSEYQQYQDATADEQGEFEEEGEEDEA
Voltage-gated inwardly rectifying potassium channel KCNH2, sequence (Q12809 whole entry): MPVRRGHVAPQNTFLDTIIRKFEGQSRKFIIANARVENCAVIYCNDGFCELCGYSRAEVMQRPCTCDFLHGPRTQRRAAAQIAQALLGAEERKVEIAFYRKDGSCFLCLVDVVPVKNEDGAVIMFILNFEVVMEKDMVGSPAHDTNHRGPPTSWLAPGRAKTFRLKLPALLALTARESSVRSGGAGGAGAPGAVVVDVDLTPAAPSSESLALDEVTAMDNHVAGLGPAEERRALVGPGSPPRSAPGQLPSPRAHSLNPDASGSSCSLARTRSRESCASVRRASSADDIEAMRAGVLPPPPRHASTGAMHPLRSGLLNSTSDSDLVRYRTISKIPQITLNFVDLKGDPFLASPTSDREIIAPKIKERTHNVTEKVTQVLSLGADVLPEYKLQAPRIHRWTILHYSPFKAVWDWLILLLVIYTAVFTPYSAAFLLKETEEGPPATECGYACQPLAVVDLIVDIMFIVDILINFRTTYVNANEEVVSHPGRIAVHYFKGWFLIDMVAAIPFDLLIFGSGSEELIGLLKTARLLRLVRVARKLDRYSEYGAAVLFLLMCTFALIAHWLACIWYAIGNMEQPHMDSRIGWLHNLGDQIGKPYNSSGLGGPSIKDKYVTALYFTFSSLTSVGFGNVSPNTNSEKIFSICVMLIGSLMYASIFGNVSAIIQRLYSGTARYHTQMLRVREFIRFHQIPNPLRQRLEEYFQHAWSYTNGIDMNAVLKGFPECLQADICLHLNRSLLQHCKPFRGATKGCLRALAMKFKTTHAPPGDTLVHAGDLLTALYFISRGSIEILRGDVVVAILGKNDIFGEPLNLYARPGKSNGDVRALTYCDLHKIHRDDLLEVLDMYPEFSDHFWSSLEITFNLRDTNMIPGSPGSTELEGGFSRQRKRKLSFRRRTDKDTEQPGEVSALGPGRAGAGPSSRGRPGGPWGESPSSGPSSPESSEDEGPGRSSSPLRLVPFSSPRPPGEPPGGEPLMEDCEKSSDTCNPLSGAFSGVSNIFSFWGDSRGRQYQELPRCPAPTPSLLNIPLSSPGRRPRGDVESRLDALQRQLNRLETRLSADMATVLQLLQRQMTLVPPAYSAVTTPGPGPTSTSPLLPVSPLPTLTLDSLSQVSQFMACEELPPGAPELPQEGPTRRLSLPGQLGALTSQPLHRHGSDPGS

Structure (SMILES): CCOc1ccc(-c2cncnc2-c2cc(OC)c(OC)c(OC)c2)cc1Cl
- viability at 0.1 µM [1]: 56.3%
- Activity [2]: 54%
- Activity [3]: Non-Toxic
- Activity [4]: Non-Toxic
- Activity [5]: 71.7%
- Activity [6]: 0.59
- Activity [7]: Non-Toxic
- Activity [8]: 0.11%
- Activity [9]: Non-Toxic
- Activity [10]: 22.7%
- Activity [11]: Dde
- Activity [12]: 3.88 g
- Ratio IC50 [13]: 41.9
- IC50 [14]: 22.3 µM
- Activity [15]: 3%
- Activity [16]: 21.6%
- MRT [17]: 1.77 h
- Activity [18]: 7.04%

Structure (SMILES): COc1ccc(/C=C\c2cc(OC)c(OC)c(OC)c2)cc1O [COMBRETASTATIN A4]
- Activity [19]: 12.1%
- Activity [20]: 57%
- Activity [21]: 100%
- Activity [22]: 28.2%
- Activity [23]: 12%
- viability at 0.0015 µM [24]: 68.9%
- Activity [25]: 16.5%
- Activity [26]: 17%
- Activity [27]: 7.77%
- Activity [28]: 5.94%
- Activity [29]: 10.8%
- Activity [30]: 4.37%
- Activity [31]: 35.3%
